Key:
[1] = physchem; details: 25 °C, aqueous buffer
[2] = test system: peptide-specific CD8 T cells; test: Immunogenicity experiment with CXD101 and peptide vaccine; format: in vivo, C57BL/6 mice
Description: C57BL/6 mice were treated with orally administrated CXD101 at 10 mg/kg for 14 days (5 days on/2 days off) and intravenous D8V and 18V peptides vaccination (days 1 and 7) with respect to vehicle only control; n=5 per group; • B) 18V-peptide specific CD8 positive T cells with tetramers (i) and general T cell activation (CD8+ CD44+ CD62L− tetramer positive T cells) measurements by flow cytometry; n=5; • C) Representative examples of immunohistochemical staining of H3AcK9 in lungs (i) collected from C57BL/6 mice at 14 days treated with 25 mg/kg CXD101 and non-treated control. Original magnification: 20×, scale bar, 50 μm; and 63×; scale bar, 16 μm. n=3; (ii) results were quantified by ImageJ Fiji software and normalised optical density was presented as a mean+/−SD. […]
Twenty C57BL/6 female mice (5 mice per group: control; CXD101 treated; peptide vaccinated; CXD101/peptide vaccinated) where 10 mice were vaccinated intravenously with 30 μg of peptides encoding CD8 T cell epitopes from the beta-galactosidase gene, βgale96-103 (DAPIYTNV; D8V), the βgal497-504 (ICPMYARV; 18V) (Genscript) with 30 μg polylC (InVivogen) and 25 μg anti-CD40 (2bScientific). […] Mice were bled at day 6 and 13 post prime and the levels of peptide-specific CD8 T cells measured by detection with tetramers followed by flow cytometry.

[3] = test system: HDAC Class II; test: HDAC Class II inhibition; format: biochemical; details: no activity against HDAC Class II

Cc1nn(C)cc1CN1CCC(c2ccc(C(=O)Nc3ccccc3N)cc2)CC1 [CXD101/zabinostat, N-(2-aminophenyl)-4-(1-[(1,3-dimethyl-1H-pyrazol-4-yl)methyl]piperidin-4yl)benzamide]
solubility [1]: ≥ 500 µg/mL | immunogenicity against a peptide-based vaccine ([2]; C57BL/6 mice, oral CXD101, intravenous D8V and 18V peptides vaccination, tetramers and flow cytometry (FIG. 7)): induces immunogenicity against a peptide-based vaccine | immune response to an immunogenic protein ([2]; normal healthy cells and animals): potentiates the immune response | IC50 [3]: ≥ 2500 nM
